Experimental data taken from patent publication US20180353483A1, “PHARMACEUTICAL COMPOSITIONS AND METHODS FOR INDOLEAMINE, 2, 3-DIOXYGENASE INHIBITION AND INDICATIONS THEREFOR” (Incyte Corporation, priority 2015, published 2018).
“And” between values parts separate entries of the source, which are not always exact repeats. Equal entries are not always repeated. Where two headings read alike, the source gives them in different places.

Experiment: Pharmacokinetics of Compound 1 in combination with MK-3475 in subjects with various cancers
Type: in vivo, human
Procedure: The subjects were not limited to a specific cancers and study include subjects with various cancers. […] One treatment cycle consisted of 21 days. […] Additional subjects were enrolled in a cohort to achieve the minimum of 3 evaluable subjects if dropouts or dose interruptions or reductions occur that result in a subject being non-evaluable for DLTs. […] An additional safety cohort was opened at 100 mg BID in parallel to 300 mg BID being tested. This may also be limited to subjects with melanoma, NSCLC, or specific cancer types from among those included in Phase 1. The RP2D was selected from the evaluated safety expansions.
If a dose was missed by more than 4 hours, that dose was skipped and was resumed at the scheduled time.
Pharmacokinetic samples were obtained at the visits of Cycle 1 Day 1, Cycle 1 Day 8 and Cycle 2 Day 1. […] The exact date and time of the PK blood draws were recorded in the eCRF along with the date and time of the last dose of study drug and details of the last meal preceding the blood draw.
The planned PK time points were used for preliminary PK analyses.

[1] = Cohort 1, 25 mg, first dose, geometric mean
[2] = Cohort 1, 25 mg, first dose, mean ± SD
[3] = Cohort 6, 300 mg BID, steady state C1D8, mean ± SD
[4] = Diagnosis DLBCL, steady state C1D8, individual values of 2 subjects
[5] = Diagnosis RCC, first dose, individual values of 2 subjects
[6] = by dose, 25 mg, first dose, geometric mean
[7] = by dose, 25 mg, first dose, mean ± SD
[8] = by dose, 50 mg BID, steady state C1D8, mean ± SD
[9] = by dose, 100 mg BID, steady state C1D8, mean ± SD
[10] = by dose, 100 mg, first dose, geometric mean

## NS(=O)(=O)NCCNc1nonc1C(=NO)Nc1ccc(F)c(Br)c1 [Compound 1, 4-({2-[(aminosulfonyl)amino]ethyl}amino)-N-(3-bromo-4-fluorophenyl)-N′-hydroxy-1,2,5-oxadiazole-3-carboximidamide]
All diagnoses, first dose, median
  tmax: 2.00 h
All diagnoses, steady state C1D8, mean ± SD
  CL/F: 28.7 ± 10.3 L/h
All diagnoses, steady state C1D8, median
  tmax: 2.00 h
Cohort 1, 25 mg BID, steady state C1D8, mean ± SD
  CL/F: 46.2 ± 8.91 L/h
Cohort 1, 25 mg BID, steady state C1D8, median
  tmax: 1.00 h
[1]
  AUC(0-t): (0.650) μM * h
  Cmax: 199 nM
[2]
  AUC(0-t): 0.711 ± 0.349 µM·h
  Cmax: 231 ± 151 nM
Cohort 1, 25 mg, first dose, median
  tmax: 2.00 h
Cohort 2, 50 mg BID, steady state C1D8, mean ± SD
  CL/F: 52.6 ± 22.4 L/h
Cohort 2, 50 mg BID, steady state C1D8, median
  tmax: 2.00 h
Cohort 2, 50 mg, first dose, geometric mean
  Cmax: 543 nM
Cohort 2, 50 mg, first dose, median
  tmax: 2.00 h
Cohort 3, 100 mg BID, steady state C1D8, geometric mean
  Cmax: 814 nM
Cohort 3, 100 mg BID, steady state C1D8, mean ± SD
  CL/F: 67.4 ± 34.9 L/h
Cohort 3, 100 mg BID, steady state C1D8, median
  tmax: 2.00 h
Cohort 4 (MEL), 50 mg BID, steady state C1D8, mean ± SD
  CL/F: 78.3 ± 28.9 L/h
Cohort 4 (MEL), 50 mg, first dose, median
  tmax: 1.00 h
Cohort 5, 100 mg BID, steady state C1D8, geometric mean
  Cmax: 803 nM
Cohort 5, 100 mg BID, steady state C1D8, mean ± SD
  CL/F: 69.6 ± 28.4 L/h
Cohort 5, 100 mg BID, steady state C1D8, median
  tmax: 2.00 h
Cohort 6, 300 mg BID, steady state C1D8, geometric mean
  Cmax: 2500 nM
[3]
  CL/F: 64.8 ± 23.2 L/h
  Cmax: 2710 ± 1220 nM
Cohort 6, 300 mg BID, steady state C1D8, median
  tmax: 2.00 h
Cohort 6, 300 mg, first dose, median
  tmax: 2.00 h
Cohort 7, 300 mg BID, steady state C1D8, geometric mean
  Cmax: 2520 nM
Cohort 7, 300 mg BID, steady state C1D8, mean ± SD
  CL/F: 65 ± 23.4 L/h
Cohort 7, 300 mg BID, steady state C1D8, median
  tmax: 2.00 h
Cohort 7, 300 mg, first dose, median
  tmax: 2.00 h
Diagnosis DLBCL, first dose, mean ± SD
  AUC(0-t): 2.29 ± 1.16 µM·h
[4]
  AUC0-12 h: 3.99 µM·h
  CL/F: 21.4 L/h and 28.6 L/h
  Cmax: 904 nM
  tmax: 4.0, 4.0 h
Diagnosis GU, first dose, median
  tmax: 2.00 h
Diagnosis GU, steady state C1D8, mean ± SD
  CL/F: 28.1 ± 10.0 L/h
Diagnosis GU, steady state C1D8, median
  tmax: 2.00 h
Diagnosis MEL, first dose, geometric mean
  Cmax: 809 nM
Diagnosis MEL, first dose, median
  tmax: 2.00 h
Diagnosis MEL, steady state C1D8, mean ± SD
  CL/F: 33.0 ± 10.0 L/h
Diagnosis MEL, steady state C1D8, median
  tmax: 2.00 h
Diagnosis NSCLC PD-L1 High, steady state C1D8, geometric mean
  Cmax: 815 nM
Diagnosis NSCLC PD-L1 High, steady state C1D8, mean ± SD
  CL/F: 29.2 ± 10.4 L/h
Diagnosis NSCLC PD-L1 Low/NE, first dose, mean ± SD
  Cmax: 914 ± 343 nM
Diagnosis NSCLC PD-L1 Low/NE, first dose, median
  tmax: 1.00 h
Diagnosis NSCLC PD-L1 Low/NE, steady state C1D8, mean ± SD
  CL/F: 26.9 ± 4.57 L/h
Diagnosis NSCLC PD-L1 Low/NE, steady state C1D8, median
  tmax: 2.00 h
Diagnosis OC, first dose, median
  tmax: 2.00 h
Diagnosis OC, steady state C1D8, mean ± SD
  CL/F: 27.9 ± 8.82 L/h
Diagnosis OC, steady state C1D8, median
  tmax: 2.00 h
[5]
  AUC(0-t): 3.58 µM·h and 1.74 µM·h
  Cmax: 1350 nM and 418 nM
  tmax: 2.0 h
Diagnosis SCCHN, first dose, mean ± SD
  AUC(0-t): 2.32 ± 1.10 µM·h
Diagnosis SCCHN, first dose, median
  tmax: 2.00 h
Diagnosis SCCHN, steady state C1D8, mean ± SD
  CL/F: 33.3 ± 15.5 L/h
Diagnosis SCCHN, steady state C1D8, median
  tmax: 2.00 h
Diagnosis TNBC, first dose, median
  tmax: 2.00 h
Diagnosis TNBC, steady state C1D8, mean ± SD
  CL/F: 25.7 ± 8.22 L/h
Diagnosis TNBC, steady state C1D8, median
  tmax: 2.00 h
Dose Reduction By C4D1 subjects (Table 13), steady state C1D8, mean ± SD
  CL/F: 28.4 ± 11.1 L/h
Dose Reduction By C4D1 subjects (Table 13), steady state C1D8, median
  tmax: 2.00 h
By dose, 25 mg BID, steady state C1D8, mean ± SD
  CL/F: 46.2 ± 8.91 L/h
By dose, 25 mg BID, steady state C1D8, median
  tmax: 1.00 h
[6]
  AUC(0-t): (0.650) μM * h
  Cmax: 199 nM
[7]
  AUC(0-t): 0.711 ± 0.349 µM·h
  Cmax: 231 ± 151 nM
By dose, 25 mg, first dose, median
  tmax: 2.00 h
By dose, 50 mg BID, steady state C1D8, geometric mean
  Cmax: 452 nM
[8]
  CL/F: 68.8 ± 29.0 L/h
  Cmax: 502 ± 237 nM
By dose, 50 mg BID, steady state C1D8, median
  tmax: 2.00 h
By dose, 50 mg, first dose, geometric mean
  Cmax: 500 nM
By dose, 50 mg, first dose, mean ± SD
  Cmax: 537 ± 217 nM
By dose, 50 mg, first dose, median
  tmax: 2.00 h
By dose, 100 mg BID, steady state C1D8, geometric mean
  Cmax: 806 nM
[9]
  CL/F: 69.1 ± 28.9 L/h
  Cmax: 917 ± 424 nM
By dose, 100 mg BID, steady state C1D8, median
  tmax: 2.00 h
[10]
  AUC(0-t): (2.32) μM * h
  Cmax: 719 nM
By dose, 100 mg, first dose, mean ± SD
  Cmax: 803 ± 378 nM
By dose, 100 mg, first dose, median
  tmax: 2.00 h
By dose, 300 mg BID, steady state C1D8, geometric mean
  Cmax: 2510 nM
By dose, 300 mg BID, steady state C1D8, mean ± SD
  CL/F: 64.9 ± 22.7 L/h
By dose, 300 mg BID, steady state C1D8, median
  tmax: 2.00 h
By dose, 300 mg, first dose, geometric mean
  Cmax: 2020 nM
By dose, 300 mg, first dose, mean ± SD
  Cmax: 2290 ± 1230 nM
By dose, 300 mg, first dose, median
  tmax: 2.00 h
human, plasma, oral, 25 mg, Cohort 1, 25 mg BID, steady state C1D8, geometric mean
  Cmax: 276 nM
human, plasma, oral, 25 mg, Cohort 1, 25 mg BID, steady state C1D8, geometric mean, read-out: AUC0-12 h (converted)
  AUC(0-t): 1.25 µM·h
human, plasma, oral, 25 mg, Cohort 1, 25 mg BID, steady state C1D8, mean ± SD
  Cmax: 307 ± 150 nM
human, plasma, oral, 25 mg, Cohort 1, 25 mg BID, steady state C1D8, mean ± SD, read-out: AUC0-12 h (converted)
  AUC(0-t): 1.27 ± 0.23 µM·h
human, plasma, oral, 25 mg, by dose, 25 mg BID, steady state C1D8, geometric mean
  Cmax: 276 nM
human, plasma, oral, 25 mg, by dose, 25 mg BID, steady state C1D8, geometric mean, read-out: AUC0-12 h (converted)
  AUC(0-t): 1.25 µM·h
human, plasma, oral, 25 mg, by dose, 25 mg BID, steady state C1D8, mean ± SD
  Cmax: 307 ± 150 nM
human, plasma, oral, 25 mg, by dose, 25 mg BID, steady state C1D8, mean ± SD, read-out: AUC0-12 h (converted)
  AUC(0-t): 1.27 ± 0.23 µM·h
human, plasma, oral, 50 mg, Cohort 2, 50 mg BID, steady state C1D8, geometric mean
  Cmax: 550 nM
human, plasma, oral, 50 mg, Cohort 2, 50 mg BID, steady state C1D8, geometric mean, read-out: AUC0-12 h (converted)
  AUC(0-t): 2.34 µM·h
human, plasma, oral, 50 mg, Cohort 2, 50 mg BID, steady state C1D8, mean ± SD
  Cmax: 603 ± 227 nM
human, plasma, oral, 50 mg, Cohort 2, 50 mg BID, steady state C1D8, mean ± SD, read-out: AUC0-12 h (converted)
  AUC(0-t): 2.53 ± 1.02 µM·h
human, plasma, oral, 50 mg, Cohort 2, 50 mg, first dose, geometric mean, read-out: AUC0-t
  AUC(0-t): 1.53 µM·h
human, plasma, oral, 50 mg, Cohort 2, 50 mg, first dose, mean ± SD
  Cmax: 574 ± 216 nM
human, plasma, oral, 50 mg, Cohort 2, 50 mg, first dose, mean ± SD, read-out: AUC0-t
  AUC(0-t): 1.6 ± 0.507 µM·h
human, plasma, oral, 50 mg, Cohort 4 (MEL), 50 mg BID, steady state C1D8, geometric mean
  Cmax: 403 nM
human, plasma, oral, 50 mg, Cohort 4 (MEL), 50 mg BID, steady state C1D8, geometric mean, read-out: AUC0-12 h (converted)
  AUC(0-t): 1.58 µM·h
human, plasma, oral, 50 mg, Cohort 4 (MEL), 50 mg BID, steady state C1D8, mean ± SD
  Cmax: 442 ± 232 nM
human, plasma, oral, 50 mg, Cohort 4 (MEL), 50 mg BID, steady state C1D8, mean ± SD, read-out: AUC0-12 h (converted)
  AUC(0-t): 1.77 ± 1.12 µM·h
human, plasma, oral, 50 mg, Cohort 4 (MEL), 50 mg BID, steady state C1D8, median, read-out: tmax
  tmax: 1.5 h
human, plasma, oral, 50 mg, Cohort 4 (MEL), 50 mg, first dose, geometric mean, read-out: AUC0-t
  AUC(0-t): 1.2 µM·h
human, plasma, oral, 50 mg, Cohort 4 (MEL), 50 mg, first dose, mean ± SD, read-out: AUC0-t
  AUC(0-t): 1.32 ± 0.698 µM·h
human, plasma, oral, 50 mg, Cohort 4 (MEL), first dose, geometric mean
  Cmax: 474 nM
human, plasma, oral, 50 mg, Cohort 4 (MEL), first dose, mean ± SD
  Cmax: 512 ± 224 nM
human, plasma, oral, 50 mg, by dose, 50 mg BID, steady state C1D8, geometric mean, read-out: AUC0-12 h (converted)
  AUC(0-t): 1.83 µM·h
human, plasma, oral, 50 mg, by dose, 50 mg BID, steady state C1D8, mean ± SD, read-out: AUC0-12 h (converted)
  AUC(0-t): 2.05 ± 1.12 µM·h
human, plasma, oral, 50 mg, by dose, 50 mg, first dose, geometric mean, read-out: AUC0-t
  AUC(0-t): 1.33 µM·h
human, plasma, oral, 50 mg, by dose, 50 mg, first dose, mean ± SD, read-out: AUC0-t
  AUC(0-t): 1.43 ± 0.63 µM·h
human, plasma, oral, 50 mg, subjects with dose reduction before C4D1, 50 mg BID, C1D8, geometric mean
  Cmax: 519 nM
human, plasma, oral, 50 mg, subjects with dose reduction before C4D1, 50 mg BID, C1D8, mean ± SD
  Cmax: 557 ± 260 nM
human, plasma, oral, 100 mg BID, All diagnoses, steady state C1D8, geometric mean
  Cmax: 1010 nM
